Measured values as given in ChEMBL document CHEMBL2146420, “RXR Partial Agonist CBt-PMN Exerts Therapeutic Effects on Type 2 Diabetes without the Side Effects of RXR Full Agonists” (ACS Med Chem Lett, 2012).
Active and inactive are the calls of the source. The rule behind the calls is not given here.

Experiments:
[1] = system: Mus musculus; assay: Upregulation of Irs2 mRNA expression in KK-Ay mouse liver at 10 mg/kg/day, po administered for 14 days by RT-PCR analysis; format: functional, organism-based
[2] = system: Mus musculus; assay: Upregulation of Slc2a1 mRNA expression in KK-Ay mouse liver at 10 mg/kg/day, po administered for 14 days by RT-PCR analysis; format: functional, organism-based
[3] = system: Mus musculus; assay: Upregulation of Slc2a2 mRNA expression in KK-Ay mouse liver at 10 mg/kg/day, po administered for 14 days by RT-PCR analysis; format: functional, organism-based
[4] = system: Mus musculus; assay: Downregulation of G6p mRNA expression in KK-Ay mouse liver at 10 mg/kg/day, po administered for 14 days by RT-PCR analysis; format: functional, organism-based
[5] = system: Mus musculus; assay: Downregulation of Pck mRNA expression in KK-Ay mouse liver at 10 mg/kg/day, po administered for 14 days by RT-PCR analysis; format: functional, organism-based
[6] = system: Mus musculus; assay: Upregulation of Fasn mRNA expression in KK-Ay mouse liver at 10 mg/kg/day, po administered for 14 days by RT-PCR analysis; format: ADME, organism-based; set-up: route oral; details: in vivo, 336 h
[7] = molecular target: T1, Peroxisome proliferator-activated receptor gamma (Homo sapiens) (UniProt P37231); assay: Agonist activity at PPARgamma expressed in […] Cos1 cells after 18 hrs by SEAP reporter gene assay; format: functional, cell-based
T1 sequence (whole entry): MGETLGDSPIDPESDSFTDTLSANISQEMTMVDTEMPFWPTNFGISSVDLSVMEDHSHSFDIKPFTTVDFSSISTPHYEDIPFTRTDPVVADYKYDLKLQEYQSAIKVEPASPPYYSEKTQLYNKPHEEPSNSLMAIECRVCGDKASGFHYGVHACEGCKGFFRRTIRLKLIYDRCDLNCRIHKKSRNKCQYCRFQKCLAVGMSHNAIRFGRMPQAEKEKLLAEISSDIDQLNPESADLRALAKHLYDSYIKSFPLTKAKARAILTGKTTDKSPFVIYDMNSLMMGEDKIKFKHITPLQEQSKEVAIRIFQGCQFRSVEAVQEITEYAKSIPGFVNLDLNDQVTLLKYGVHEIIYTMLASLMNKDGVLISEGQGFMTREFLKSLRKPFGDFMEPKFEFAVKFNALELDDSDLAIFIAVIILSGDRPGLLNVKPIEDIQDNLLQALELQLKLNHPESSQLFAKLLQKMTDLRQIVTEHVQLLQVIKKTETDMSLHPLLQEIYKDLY

[8] = molecular target: RXR alpha/PPAR gamma (Homo sapiens) (UniProt P37231+P19793); assay: Agonist activity at PPARgamma/RXRalpha expressed in […] Cos1 cells after 18 hrs by SEAP reporter gene assay; format: functional, cell-based
[9] = molecular target: T2, Oxysterols receptor LXR-alpha (Homo sapiens) (UniProt Q13133); assay: Agonist activity at LXRalpha expressed in […] Cos1 cells after 18 hrs by SEAP reporter gene assay; format: functional, cell-based
T2 sequence (whole entry): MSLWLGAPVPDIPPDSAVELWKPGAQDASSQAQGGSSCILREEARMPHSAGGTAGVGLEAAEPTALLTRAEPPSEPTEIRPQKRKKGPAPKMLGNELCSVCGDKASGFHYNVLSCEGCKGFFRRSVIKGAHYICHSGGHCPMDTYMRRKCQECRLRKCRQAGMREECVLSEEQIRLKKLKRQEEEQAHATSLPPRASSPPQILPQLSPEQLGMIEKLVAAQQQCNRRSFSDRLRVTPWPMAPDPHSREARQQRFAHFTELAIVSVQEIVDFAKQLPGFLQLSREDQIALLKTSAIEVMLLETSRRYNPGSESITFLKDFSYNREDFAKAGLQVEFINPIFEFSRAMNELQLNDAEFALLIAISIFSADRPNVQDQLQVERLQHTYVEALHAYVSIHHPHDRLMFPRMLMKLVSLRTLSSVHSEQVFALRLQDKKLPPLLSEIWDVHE

[10] = molecular target: Retinoic acid receptor RXR-alpha/oxysterols receptor LXR-alpha (Homo sapiens) (UniProt P19793+Q13133); assay: Agonist activity at LXRalpha/RXRalpha expressed in […] Cos1 cells after 18 hrs by SEAP reporter gene assay; format: functional, cell-based
[11] = system: Serum; assay: Drug level in ICR mouse serum at 30 mg/kg, po; format: ADME, organism-based; set-up: dose 30 mg/kg, route oral; details: in vivo, read-out: Drug uptake
[12] = system: Mus musculus; assay: Toxicity in ICR mouse assessed as increase in body weight at 30 mg/kg/day, po for 7 days relative to vehicle-treated control; format: organism-based; set-up: route oral; details: in vivo, 168 h
[13] = system: Mus musculus; assay: Toxicity in ICR mouse assessed as increase in liver weight at 30 mg/kg/day, po for 7 days relative to vehicle-treated control; format: organism-based; set-up: route oral; details: in vivo, 168 h
[14] = system: Mus musculus; assay: Toxicity in ICR mouse assessed as increase in serum triglyceride level at 30 mg/kg/day, po for 7 days relative to vehicle-treated control; format: organism-based; set-up: route oral; details: in vivo, 168 h
[15] = system: Rattus norvegicus; assay: Toxicity in male Sprague-Dawley rat assessed as enlarged testes at 30 mg/kg/day, po for 28 days relative to vehicle-treated control; format: organism-based, Testis; set-up: route oral; details: in vivo, 672 h
[16] = system: Mus musculus; assay: Antidiabetic activity in diabetic, obese KK-Ay mouse assessed as blood glucose level at 10 mg/kg/day, po administered for 14 days measured on day 3 after starting of dosing (reference value: 500 mg/dL); format: functional
[17] = system: Mus musculus; assay: Antidiabetic activity in diabetic, obese KK-Ay mouse assessed as increase in adiponectin level at 10 mg/kg/day, po administered for 14 days by oral glucose tolerance test; format: functional, organism-based
[18] = system: Mus musculus; assay: Toxicity in KK-Ay mouse assessed as increase in body weight at 10 mg/kg/day, po administered for 14 days relative to vehicle-treated control; format: organism-based; set-up: route oral; details: in vivo, 336 h
[19] = system: Mus musculus; assay: Toxicity in KK-Ay mouse assessed as increase in liver weight at 10 mg/kg/day, po administered for 14 days relative to vehicle-treated control; format: organism-based; set-up: route oral; details: in vivo, 336 h
[20] = system: Mus musculus; assay: Toxicity in KK-Ay mouse assessed as increase in serum triglyceride level at 10 mg/kg/day, po administered for 14 days relative to vehicle-treated control; format: organism-based; set-up: route oral; details: in vivo, 336 h
[21] = system: Mus musculus; assay: Toxicity in KK-Ay mouse assessed as increase in total cholesterol level at 10 mg/kg/day, po administered for 14 days relative to vehicle-treated control; format: organism-based; set-up: route oral; details: in vivo, 336 h
[22] = system: Mus musculus; assay: Upregulation of Irs1 mRNA expression in KK-Ay mouse liver at 10 mg/kg/day, po administered for 14 days by RT-PCR analysis; format: functional, organism-based
[23] = system: Mus musculus; assay: Upregulation of Scd1 mRNA expression in KK-Ay mouse liver at 10 mg/kg/day, po administered for 14 days by RT-PCR analysis; format: ADME, organism-based; set-up: route oral; details: in vivo, 336 h
[24] = system: Mus musculus; assay: Upregulation of Srebp1c mRNA expression in KK-Ay mouse liver at 10 mg/kg/day, po administered for 14 days by RT-PCR analysis; format: functional, organism-based
[25] = molecular target: T3, Retinoic acid receptor RXR-alpha (Homo sapiens) (UniProt P19793); assay: Agonist activity at RXRalpha expressed in […] Cos1 cells after 18 hrs by SEAP reporter gene assay; format: functional, cell-based
T3 sequence (whole entry): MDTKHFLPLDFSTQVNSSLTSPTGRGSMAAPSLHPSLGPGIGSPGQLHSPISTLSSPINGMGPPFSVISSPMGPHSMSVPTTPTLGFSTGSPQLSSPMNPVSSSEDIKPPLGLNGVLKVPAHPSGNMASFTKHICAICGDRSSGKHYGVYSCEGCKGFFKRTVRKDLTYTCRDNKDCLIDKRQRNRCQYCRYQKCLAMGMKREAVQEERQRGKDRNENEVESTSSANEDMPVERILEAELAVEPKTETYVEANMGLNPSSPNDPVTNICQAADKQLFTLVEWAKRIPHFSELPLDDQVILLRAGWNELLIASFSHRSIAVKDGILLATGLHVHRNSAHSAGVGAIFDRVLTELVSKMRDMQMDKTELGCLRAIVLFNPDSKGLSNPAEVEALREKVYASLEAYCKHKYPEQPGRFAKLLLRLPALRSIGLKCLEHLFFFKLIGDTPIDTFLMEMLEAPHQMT

`CCN(c1ccc2c(c1)C(C)(C)CCC2(C)C)c1ccc(C(=O)O)cn1` was tested, and the Activity [1] was “inactive”, the Activity [2] was “inactive” and the Activity [3] was “inactive”. For the same compound, the Activity [4] was “inactive”, the Activity [5] was “inactive” and the Activity [6] was “Toxic”. The Activity [7] was “inactive”, the Activity [8] was “Active” and the Activity [9] was “Active”. For the same compound, the Activity [10] was “Active”, the concentration [11] was 1000 nM and the Activity [12] was “Toxic”. For the same compound, the Activity [13] was “Toxic”, the Activity [14] was “Toxic” and the Activity [15] was “Non-toxic”. For the same compound, the Activity [16] was 300 mg/dL, the Activity [17] was “Active” and the Activity [18] was “Toxic”. For the same compound, the Activity [19] was “Toxic”, the Activity [20] was “Toxic” and the Activity [21] was “Toxic”. The Activity [22] was “inactive”, the Activity [23] was “Toxic” and the Activity [24] was “inactive”.
Compound `Cc1cc2c(cc1-n1nnc3cc(C(=O)O)ccc31)C(C)(C)CCC2(C)C` has a concentration [11] of 1000 nM.
With `Cc1cc2c(cc1-n1c(C)nc3cc(C(=O)O)ccc31)C(C)(C)CCC2(C)C` the Activity [25] was “Active”, the Activity [7] was “inactive” and the Activity [8] was “Active”. The Activity [9] was “Active”, the Activity [10] was “Active” and the concentration [11] was 1000 nM. For the same compound, the Activity [12] was “Toxic”, the Activity [13] was “Toxic” and the Activity [15] was “Non-toxic”.
